Experimental data published in patent publication US10517862B2, “Fused heterocyclic compound derivative and application thereof” (NHWA PHARMA. CORPORATION, priority 2015, dated 2019).

Experiments:
D3 receptor = target: T1, D3 receptor (Homo sapiens, UniProt P35462); test: D3 receptor assay ([3H]-Spiperone, HEK-293 cells); assay type: binding; conditions: for affinity with D3 (in words): summary of in vitro assay; for inhibition at 10 µM: test compound final concentration 10 μmol/L, [3H]-Spiperone, HEK-293 cells, read-out: D3 Inhibition rate (%)
T1 construct: expressed in transfected cells; host or cells: HEK-293
Procedure: Then the cells were centrifuged at 1000 rpm for 5 min, the supernatant was discarded, and the cell pellets was collected and stored in a −20° C. fridge for reservation. It was re-suspended with Tris-Cl (pH 7.4) when the assay was performed.
Tris was divided into aliquots by Genetimes Technology Inc.
Competitive binding test for receptors: 20 μl of each of the test compounds and 20 μl of the radioactive ligand together with 160 μl of the receptor proteins were added into the reaction tubes, and the final concentrations of the test compound and the positive drug were all 10 μmol/L. After 50 min of incubation in 30° C. water bath, the tubes were immediately moved to ice bath to terminate the reactions. GF/C glass fiber filter papers were used for rapid sucking filtration on a Millipore cell sample collector, 3 ml of elution buffer (50 mM Tris-HCl, PH 7.4) was applied for 3 times, and microwave was applied for 4-5 min for drying. The filter paper was moved into 0.5 ml centrifuge tube, and 500 μl of liposoluble scintillation cocktail was added. The tubes were allowed to stand still for over 30 min in dark, and the intensities of radioactivity were measured by a counter.

mice of Kunming breed = test: Apomorphine induced clambering assay of mice; assay type: in vivo; conditions: Mus musculus; mice, po; apomorphine 1 mg/kg sc 1 hour after administration; read-out: Apomorphine induced clambering (ED50, po, mg/kg)
Procedure: Healthy mice of Kunming breed (KM) (male, with body weight of 18-22 g) were provided by Qinglongshan Animal Cultivation Center, Nanjing.
Apomorphine provided by Sigma Company was dissolved in 0.9% NaCl (containing 0.1% vitamin C) before use, and was freshly formulated before use.
Vitamin C, F20061113, was provided by Sinopharm Chemical Reagent Co. Ltd.
Sodium chloride injection, H32026305, was provided by Xuzhou No. 5 Pharmaceutical Factory Co. Ltd.
Instruments: self-made clambering cage, chronograph.
Procedures: apomorphine induced clambering assay of mice
After 5 min of adaptation, the behavior of the mice at 10-11, 20-21, and 30-31 min after the injection of apomorphine were observed and scored. Scoring criteria: the behavior of 4 paws on the floor was scored as 0; the behavior of 2 forepaws on the cage was scored as 1; and the behavior of 4 paws on the cage was scored as 2.

in vivo = conditions: both sexes, mouse, in vivo, po; single intragastric administration in mice; read-out: LD50 (po, mg/kg)

T1 sequence (P35462 whole entry): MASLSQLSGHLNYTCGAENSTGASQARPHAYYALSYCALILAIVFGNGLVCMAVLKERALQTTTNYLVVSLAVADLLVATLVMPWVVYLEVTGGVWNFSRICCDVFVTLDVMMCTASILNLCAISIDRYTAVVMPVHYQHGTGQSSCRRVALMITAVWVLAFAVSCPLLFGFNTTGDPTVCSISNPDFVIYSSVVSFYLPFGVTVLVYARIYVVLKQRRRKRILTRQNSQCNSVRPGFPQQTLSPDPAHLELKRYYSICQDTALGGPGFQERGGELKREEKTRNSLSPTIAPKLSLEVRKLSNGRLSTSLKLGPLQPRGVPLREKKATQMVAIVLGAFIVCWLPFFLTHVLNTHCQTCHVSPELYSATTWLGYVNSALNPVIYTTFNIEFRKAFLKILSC

Row | SMILES | affinity with D3 (in words) (D3 receptor) | inhibition at 10 µM (D3 receptor) [%] | ED50 (mice of Kunming breed) [mg/kg] | LD50 at 7 days (in vivo) [mg/kg]
1 | O=C(CCN1CCC(c2noc3cc(F)ccc23)CC1)c1cc2c3c(c1)CCN3C(=O)CC2 [Compound 12] | high affinities | 94.9 | 0.076 | > 2000
2 | O=C(CCCN1CCC(c2noc3cc(F)ccc23)CC1)c1cc2c3c(c1)CCC(=O)N3CCC2 [Compound 5] | high affinities | 98 | 1.31 | > 2000
